Tests used:
RAW 264.7 cells = test: Inhibitory effect on NO production (LPS, Griess reagent); format: cell-based, murine; conditions: Mus musculus, RAW264.7, 24 h, Addition 30 μM, LPS 1 μg/ml, read-out: Inihibition (%) of NO production
Protocol: Using RPMI1640 media supplemented with 10% fetal bovine serum (FBS), RAW 264.7 cells (obtained from American Type Culture Collection), a murine macrophage cell line, were cultured at 37° C. in a 5% CO2 incubator. The RAW 264.7 cells were harvested and cell density was adjusted to 5×10^5 cell/ml with a RPMI media supplemented with 0.5% FBS and plated at 5×10^4 cell/well to 96-well plate, which were then cultured for 20 hours in a CO2 incubator. After removal of the media, the cells were pre-treated for 1 hour with fresh media containing 30 μM. The test compounds were dissolved in DMSO and diluted to respective concentration in the media. In order to minimize DMSO effect on the nitric oxide formation by the RAW 264.7 cells in the walls, the media were allowed to contain DMSO at a concentration of 0.1% or less.
After completion of one-hour pre-treatment, Lipopolysaccharide (E. coli serotype 055:B5) was added to activate the cells at a final concentration of 1 μg/ml, which were maintained for 24 hours in a CO2 incubator. As a result of the activation of RAW 264.7 cells with LPS, NO was formed. The NO release into the media was in a form of nitrite (NO2^−) and quantitatively measured using the Griess reagent. A control group was treated only with vehicle instead of test compounds.
The inhibitory effect of the test compounds against NO production were determined as the reduction of NO quantity compared with that of the control group.

isolated rat aorta = test: Vasodilating effect on blood vessel excised from rats (methoxamine-constricted aorta); conditions: isolated rat aorta constricted with methoxamine (3 μM); read-out: Concentration for inhibition of constriction induced by methoxamine in rat arota (IC50)
Outline: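 Endothelium-denuded rat thoracic aortic rings (3 mm) in Krebs-Henseleit buffer, 37 °C, carbogen, 2 g resting tension, primed twice with 10^−5 M phenylephrine. After maximal contraction with 3×10^−6 M methoxamine, compounds added cumulatively at 1, 3, 10, 30 μM. IC50 = concentration giving 50% relaxation of maximal constriction, by linear regression.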

brain homogenate = test: Inhibitory effect against lipid peroxidation by iron (MDA quantification); format: biochemical, rat; conditions: 100 μM compound, FeCl2 400 μM, 37° C. 30 min
Protocol: The rat brain was homogenized in a Krebs buffer (15 mM HEPES, 10 mM glucose, 140 mM NaCl, 3.6 mM KCl, 1.5 mM CaCl2, 1.4 mM KH2PO4, 0.7 mM MgCl2, PH 7.4) and the supernatant separated by centrifugation at 12,000 rpm for 10 min was used for further experiments. FeCl2 was added for the final concentration to be 400 μM. Then the brain homogenate was allowed to stand at 37° C. for 30 min for the facilitation of oxidation. Each of the test compounds was added at a concentration of 100 μM. For control group, only vehicle was applied.
Iron facilitates the oxidation of the said brain homogenate to produce malondialdehyde (MDA), lipid peroxidation product. Thus, the lipid peroxidation was determined by MDA quantification. The inhibitory effect against lipid peroxidation of the test compounds was evaluated by calculating MDA reduction rate of the test compounds compared with that of the control group.
Typically, the MDA quantification is achieved by reacting samples with 2-thiobarbituric acid (TBA) and measuring the absorbance at 530 nm. However, this method is unsuitable to treat samples on a large scale because of a boiling step. Thus, in this experiment, N-methyl-2-phenylindole was used instead of TBA.

cortical neuron cells = test: Protective effect on iron-induced neuronal cell injury (LDH release); format: cell-based; conditions: FeSO4 50 μM; for protective effect on neuron cell: Inhibition (%, 30 μM compound addition): LDH reduction vs control; for IC50: LDH
Outline: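 Embryonic (day 17–18) cortical neurons cultured 7–9 days, serum lowered to 0.2%, pretreated 30 min with compound (DMSO ≤0.1%), then exposed to 50 μM FeSO4 for 24 h. LDH released to medium measured; protection expressed as LDH reduction versus vehicle control.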

[1] = Acute oral toxicity test in rats; conditions: SD, rat, in vivo, single oral dose, suspended in 0.5% methyl cellulose, read-out: lethal dose (LD50) for oral administration
Outline: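 Six-week-old SPF SD rats, two per group, received compounds orally as suspensions in 0.5% methyl cellulose. Endpoints were clinical signs, body weight, mortality, haematology, serum biochemistry and macroscopic necropsy of organs and tissues.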

[2] = tested on: isolated ischemic rat heart; test: Cardioprotective effect in ischemic heart models of rats (Langendorff); conditions: 10 μM; for EDP (mmHg): after 30 min global ischemia and reperfusion; for LDH (u/g): reperfusion LDH release; for LVDP X HR (%): reperfusion, % of pre-treatment DP; for TTC: time to contracture during global ischemia
Protocol: Male rats (300˜450 g, obtained form the experimental animal team of the Korea Research Institute of Chemical Technology) were anaesthetized by the intra-peritoneal injection of sodium pentobarbital at a dose of 100 mg/kg. Heparin (1,000 U/kg) was injected to the tail vein and then the heart was enucleated. Particularly, cannula (PE 240) was inserted to the organ. Rats were mechanically ventilated with a rodent ventilator, in situ aorta cannula was inserted into their aorta. In retorograde perfusion, their hearts were enucleated, then just hung onto Langendorff Apparatus. Tissue attached at the heart was removed. Heart was perfused in oxygenated modified Krebs-Henseleit bicarbonate buffer (composition<mM/L>116 NaCl, 4.7 KCl, 1.1 MgSO4, 1.17 KH2PO4, 24.9 NaHCO3, 2.52 CaCl2, 8.32 Glucose, 2.0 Pyruvate) at a constant perfusion pressure (85 mmHg). A metal cannula attached to latex balloon filled with solvent (ethanol: water=1:1 (v/v)) was placed in the left ventricle through pulmonary vein and connected to a isovolumetric pressure transducer (H.S.E., Germany) for measurement of left ventricular pressure (LVP). The hearts were allowed to equilibrate for 15 min, at which time left ventricular end-diastolic pressure (EDP) was adjusted to 5 mmHg and this balloon volume was maintained throughout the experiment.
Baseline cardiac contractile function, heart rate (HR), and coronary flow (CF) were measured. Cardiac contractile function was calculated by […], yielding LVDP (left ventricular developed pressure). Double product RPP (rate-pressure product) (DP), another important parameter for indirectly assessing cardiac performance in Langendorff heart impossible to measure cardiac output was calculated by multiplying HR by LVDP.
Throughout the experiment, total coronary blood flow was measured by the use of coronary flow probe (diameter: 1.0 mm) installed in aortic cannula with electromagnetic flowmeter. Temperature of heart was steadily maintained by immersing the heart at 37° C. in physiological saline solution to which 95% O2/5% CO2 was constantly supplied. After stabilization for 15 min, the hearts were pre-treated for 10 min in vehicle (0.04% DMSO) or mixture containing the compound of the present invention or control material. Thereafter, cardiac contractile function, HR and CF were repeatedly measured. Global ischemia was induced by completely shutting off the perfusate for 30 min. Severity of ischemia was determined as the time to contracture (TTC, min) during global ischemia in which the first 5 mmHg increase in EDP was observed. Then, the hearts were reperfused and, 30 min later, contractile functions (LVDP, HR and CF) was repeatedly measured. After reperfusion was accomplished for 30 min, LDH (lactate dehydrogenase) was measured as a sensitive index for loss of cell viability with a kit.

| Compound | inhibition at 30 µM (RAW 264.7 cells) [%] | IC50 (isolated rat aorta) [µM] | inhibitory effect against lipid peroxidation induced by iron (%, 100 μM) (brain homogenate) [%] | protective effect on neuron cell: Inhibition (%, 30 μM compound addition) (cortical neuron cells; 24 hours) [%] | IC50 (cortical neuron cells; Cortical neurone, 24 h) [µM] | IC50 (cortical neuron cells; 24 hours) [µM] | LD50 [1] [mg/kg] | EDP (mmHg) [2] [mmHg] | LDH (u/g) [2] [u/g] | LVDP X HR (%) [2] [%] | TTC [2] [min] |
| --- | --- | --- | --- | --- | --- | --- | --- | --- | --- | --- | --- |
| COC(OC)[C@@]1(C)Oc2ccc([N+](=O)[O-])cc2[C@H](N(Cc2nnn(C)n2)c2ccccc2Cl)[C@H]1O [Example 29, (2S,3R,4S)-6-nitro-4-[N-(2-chlorophenyl)-N-(2-methyl-2H-tetrazol-5-ylmethyl)amino]-3-hydroxy-2-methyl-2-dimethoxymethyl-3,4-dihydro-2H-1-benzopyran] | > 75 | – | – | – | – | – | – | – | – | – | – |
| COC(OC)[C@@]1(C)Oc2ccc(N)cc2[C@H](N(Cc2nnn(C)n2)c2ccc(OC(F)(F)F)cc2)[C@H]1O [Example 32, (2S,3R,4S)-6-amino-4-[N-(4-trifluoromethoxyphenyl)-N-(2-methyl-2H-tetrazol-5-ylmethyl)amino]-3-hydroxy-2-methyl-2-dimethoxymethyl-3,4-dihydro-2H-1-benzopyran] | – | > 30 | 89 | 108 | < 2 | 1.6 | > 2000 | 17.0 | 15.7 | 64.7 | 27.9 |
| COC(OC)[C@@]1(C)Oc2ccc([N+](=O)[O-])cc2[C@H](N(Cc2nnn(C)n2)c2ccc(C)cc2C)[C@H]1O [Example 45, (2S,3R,4S)-6-nitro-4-[N-(2,4-dimethylphenyl)-N-(2-methyl-2H-tetrazol-5-ylmethyl)amino]-3-hydroxy-2-methyl-2-dimethoxymethyl-3,4-dihydro-2H-1-benzopyran] | > 75 | – | – | – | – | – | – | – | – | – | – |
| COC(OC)[C@@]1(C)Oc2ccc([N+](=O)[O-])cc2[C@H](N(Cc2nnn(C)n2)c2c(C)cccc2C)[C@H]1O [Example 47, (2S,3R,4S)-6-nitro-4-[N-(2,6-dimethylphenyl)-N-(2-methyl-2H-tetrazol-5-ylmethyl)amino]-3-hydroxy-2-methyl-2-dimethoxymethyl-3,4-dihydro-2H-1-benzopyran] | 62 | – | – | – | – | – | – | – | – | – | – |
| COC(OC)[C@@]1(C)Oc2ccc([N+](=O)[O-])cc2[C@H](N(Cc2nnn(C)n2)c2ccccc2C(C)C)[C@H]1O [Example 51, (2S,3R,4S)-6-nitro-4-[N-(2-isopropylphenyl)-N-(2-methyl-2H-tetrazol-5-ylmethyl)amino]-3-hydroxy-2-methyl-2-dimethoxymethyl-3,4-dihydro-2H-1-benzopyran] | > 90 | – | – | – | – | – | – | – | – | – | – |
| COC(=O)c1cccc(N(Cc2nnn(C)n2)[C@H]2c3cc([N+](=O)[O-])ccc3O[C@](C)(C(OC)OC)[C@@H]2O)c1 [Example 58, (2S,3R,4S)-6-nitro-4-[N-(3-methoxycarbonylphenyl)-N-(2-methyl-2H-tetrazol-5-ylmethyl)amino]-3-hydroxy-2-methyl-2-dimethoxymethyl-3,4-dihydro-2H-1-benzopyran] | > 75 | – | – | – | – | – | – | – | – | – | – |
| COC(OC)[C@@]1(C)Oc2ccc(N)cc2[C@H](N(Cc2nnn(C)n2)c2ccccc2O)[C@H]1O [Example 61, (2S,3R,4S)-6-amino-4-[N-(2-hydroxyphenyl)-N-(2-methyl-2H-tetrazol-5-ylmethyl)amino]-3-hydroxy-2-methyl-2-dimethoxymethyl-3,4-dihydro-2H-1-benzopyran] | – | > 30 | 87 | 89 | < 2 | 1.2 | > 2000 | 23.0 | 22.4 | 52.7 | 20.0 |
| COC(=O)c1ccc(C)c(N(Cc2nnn(C)n2)[C@H]2c3cc([N+](=O)[O-])ccc3O[C@](C)(C(OC)OC)[C@@H]2O)c1 [Example 68, (2S,3R,4S)-6-nitro-4-[N-(2-methyl-5-methoxycarbonylphenyl)-N-(2-methyl-2H-tetrazol-5-ylmethyl)amino]-3-hydroxy-2-methyl-2-dimethoxymethyl-3,4-dihydro-2H-1-benzopyran] | 64 | – | – | – | – | – | – | – | – | – | – |
| COC(OC)[C@@]1(C)Oc2ccc([N+](=O)[O-])cc2[C@H](N(Cc2nnn(C)n2)c2cc(C)ccc2O)[C@H]1O [Example 70, (2S,3R,4S)-6-nitro-4-[N-(2-hydroxy-5-methylphenyl)-N-(2-methyl-2H-tetrazol-5-ylmethyl)amino]-3-hydroxy-2-methyl-2-dimethoxymethyl-3,4-dihydro-2H-1-benzopyran] | > 75 | > 30 | – | 85 | < 2 | 1.4 | > 2000 | 37.0 | 18.4 | 31.9 | 22.0 |
| COC(OC)[C@@]1(C)Oc2ccc(N)cc2[C@@H](N(Cc2nnn(C)n2)c2ccc(OC(F)(F)F)cc2)[C@@H]1O [Example 81, (2S,3S,4R)-6-amino-4-[N-(4-trifluoromethoxyphenyl)-N-(2-methyl-2H-tetrazol-5-ylmethyl)amino]-3-hydroxy-2-methyl-2-dimethoxymethyl-3,4-dihydro-2H-1-benzopyran] | – | > 30 | 89 | 120 | < 2 | 1.5 | > 2000 | – | – | – | – |
